In brackets after ≈: the same amount, converted by molar mass.
Legend:
Type in all cases: functional
Aspergillus fumigatus = assay: Antifungal activity against Aspergillus fumigatus ATCC 26934 by micro-broth dilution method
[1] = system: Trichophyton mentagrophytes; assay: Antifungal activity against Trichophyton mentagrophytes ATCC 9972 by micro-broth dilution method
Trichophyton rubrum = assay: Antifungal activity against Trichophyton rubrum C113 by microbroth dilution method
Candida albicans = assay: Antifungal activity against Candida albicans ATCC 10231 by micro-broth dilution method
Aspergillus flavus = assay: Antifungal activity against Aspergillus flavus ATCC 9170 by micro-broth dilution method
Aspergillus niger = assay: Antifungal activity against Aspergillus niger ATCC 9029 by micro-broth dilution method
Candida tropicalis = assay: Antifungal activity against Candida tropicalis C131 by micro-broth dilution method
Cryptococcus neoformans = assay: Antifungal activity against Cryptococcus neoformans ATCC 32264 by microbroth dilution method
Saccharomyces cerevisiae = assay: Antifungal activity against Saccharomyces cerevisiae ATCC 9763 by microbroth dilution method
Nannizzia gypsea = assay: Antifungal activity against Microsporum gypseum C115 by microbroth dilution method

MIC (Aspergillus fumigatus) [µg/mL]	MIC [1] [µg/mL]	MIC (Trichophyton rubrum) [µg/mL]	MIC (Candida albicans) [µg/mL]	MIC (Aspergillus flavus) [µg/mL]	MIC (Aspergillus niger) [µg/mL]	MIC (Candida tropicalis) [µg/mL]	MIC (Cryptococcus neoformans) [µg/mL]	MIC (Saccharomyces cerevisiae) [µg/mL]	MIC (Nannizzia gypsea) [µg/mL]	SMILES
62.5 (≈ 361 µM)	100 (≈ 577 µM)	100 (≈ 577 µM)	250 (≈ 1440 µM)	100 (≈ 577 µM)	100 (≈ 577 µM)	250 (≈ 1440 µM)	250 (≈ 1440 µM)	> 250	100 (≈ 577 µM)	c1ccc(NCc2ccco2)cc1
> 250	> 250	> 250	> 250	> 250	> 250	> 250	> 250	> 250	> 250	C=CCC(Nc1ccc(C)cc1)c1ccsc1 (stereo not given)
> 250	125 (≈ 503 µM)	125 (≈ 503 µM)	> 250	> 250	> 250	> 250	> 250	> 250	250 (≈ 1010 µM)	N#CC(Nc1ccc(Cl)cc1)c1ccsc1 (stereo not given)
50 (≈ 241 µM)	12.5 (≈ 60.2 µM)	6.25 (≈ 30.1 µM)	62.5 (≈ 301 µM)	50 (≈ 241 µM)	62.5 (≈ 301 µM)	62.5 (≈ 301 µM)	50 (≈ 241 µM)	50 (≈ 241 µM)	12.5 (≈ 60.2 µM)	Clc1ccc(NCc2ccco2)cc1
> 250	50 (≈ 252 µM)	50 (≈ 252 µM)	> 250	> 250	> 250	> 250	> 250	> 250	50 (≈ 252 µM)	Cc1ccc(NCc2ccccn2)cc1
> 250	250 (≈ 1130 µM)	250 (≈ 1130 µM)	> 250	> 250	> 250	> 250	125 (≈ 566 µM)	> 250	> 250	Cn1cccc1CNc1ccc(Cl)cc1
> 250	31.2 (≈ 103 µM)	16 (≈ 52.8 µM)	> 250	> 250	> 250	> 250	> 250	> 250	16 (≈ 52.8 µM)	C=CCC(Nc1ccc(Br)cc1)c1ccncc1 (stereo not given)
> 250	> 250	> 250	> 250	> 250	> 250	> 250	> 250	> 250	> 250	Cc1ccc(NCc2cccn2C)cc1
> 250	250 (≈ 1170 µM)	250 (≈ 1170 µM)	> 250	> 250	> 250	> 250	> 250	> 250	> 250	N#CC(Nc1ccccc1)c1ccsc1 (stereo not given)
> 250	250 (≈ 1260 µM)	250 (≈ 1260 µM)	> 250	> 250	> 250	> 250	> 250	> 250	> 250	N#CC(Nc1ccccc1)c1ccoc1 (stereo not given)
200 (≈ 645 µM)	25 (≈ 80.6 µM)	25 (≈ 80.6 µM)	> 250	100 (≈ 322 µM)	100 (≈ 322 µM)	> 250	100 (≈ 322 µM)	200 (≈ 645 µM)	25 (≈ 80.6 µM)	Ic1ccc(NCc2ccccn2)cc1
125 (≈ 572 µM)	62.5 (≈ 286 µM)	62.5 (≈ 286 µM)	31.2 (≈ 143 µM)	125 (≈ 572 µM)	125 (≈ 572 µM)	31.2 (≈ 143 µM)	62.5 (≈ 286 µM)	62.5 (≈ 286 µM)	62.5 (≈ 286 µM)	Clc1ccc(NCc2ccncc2)cc1
250 (≈ 1340 µM)	250 (≈ 1340 µM)	250 (≈ 1340 µM)	250 (≈ 1340 µM)	250 (≈ 1340 µM)	250 (≈ 1340 µM)	250 (≈ 1340 µM)	125 (≈ 668 µM)	250 (≈ 1340 µM)	125 (≈ 668 µM)	Cc1ccc(NCc2ccoc2)cc1
250 (≈ 1190 µM)	125 (≈ 597 µM)	125 (≈ 597 µM)	> 250	250 (≈ 1190 µM)	250 (≈ 1190 µM)	> 250	250 (≈ 1190 µM)	> 250	250 (≈ 1190 µM)	N#CC(Nc1ccccc1)c1ccncc1 (stereo not given)
> 250	250 (≈ 1170 µM)	250 (≈ 1170 µM)	> 250	> 250	> 250	> 250	> 250	> 250	> 250	N#CC(Nc1ccccc1)c1cccs1 (stereo not given)
> 250	> 250	> 250	> 250	> 250	> 250	> 250	> 250	> 250	> 250	COc1ccc(CNc2cccc([N+](=O)[O-])c2)cc1
250 (≈ 1360 µM)	25 (≈ 136 µM)	25 (≈ 136 µM)	250 (≈ 1360 µM)	> 250	250 (≈ 1360 µM)	250 (≈ 1360 µM)	> 250	> 250	125 (≈ 678 µM)	c1ccc(NCc2ccccn2)cc1
125 (≈ 559 µM)	62.5 (≈ 279 µM)	62.5 (≈ 279 µM)	62.5 (≈ 279 µM)	250 (≈ 1120 µM)	250 (≈ 1120 µM)	62.5 (≈ 279 µM)	62.5 (≈ 279 µM)	250 (≈ 1120 µM)	62.5 (≈ 279 µM)	Clc1ccc(NCc2cccs2)cc1
50 (≈ 161 µM)	25 (≈ 80.6 µM)	25 (≈ 80.6 µM)	> 250	50 (≈ 161 µM)	100 (≈ 322 µM)	200 (≈ 645 µM)	50 (≈ 161 µM)	200 (≈ 645 µM)	50 (≈ 161 µM)	Ic1ccc(NCc2cccnc2)cc1
250 (≈ 1360 µM)	125 (≈ 678 µM)	125 (≈ 678 µM)	> 250	250 (≈ 1360 µM)	250 (≈ 1360 µM)	250 (≈ 1360 µM)	> 250	> 250	125 (≈ 678 µM)	c1ccc(NCc2ccncc2)cc1
> 250	250 (≈ 1340 µM)	250 (≈ 1340 µM)	> 250	> 250	> 250	> 250	> 250	> 250	> 250	Cn1cccc1CNc1ccccc1
> 250	125 (≈ 495 µM)	250 (≈ 991 µM)	250 (≈ 991 µM)	> 250	> 250	250 (≈ 991 µM)	> 250	250 (≈ 991 µM)	125 (≈ 495 µM)	C=CCC(Nc1cc(C)cc(C)c1)c1ccncc1 (stereo not given)
> 250	50 (≈ 246 µM)	25 (≈ 123 µM)	> 250	> 250	> 250	> 250	> 250	> 250	12.5 (≈ 61.5 µM)	Cc1ccc(NCc2cccs2)cc1
250 (≈ 1230 µM)	50 (≈ 246 µM)	100 (≈ 492 µM)	> 250	250 (≈ 1230 µM)	250 (≈ 1230 µM)	> 250	> 250	> 250	100 (≈ 492 µM)	COc1ccc(NCc2ccco2)cc1
> 250	25 (≈ 109 µM)	25 (≈ 109 µM)	> 250	> 250	> 250	> 250	> 250	> 250	25 (≈ 109 µM)	O=[N+]([O-])c1cccc(NCc2cccnc2)c1
> 250	250 (≈ 1260 µM)	250 (≈ 1260 µM)	> 250	> 250	> 250	> 250	> 250	> 250	250 (≈ 1260 µM)	Cc1ccc(NCc2cccnc2)cc1

Reference: ChEMBL document CHEMBL1143950, “Antifungal and cytotoxic activities of some N-substituted aniline derivatives bearing a hetaryl fragment” (Bioorg Med Chem, 2008)
